Measured values published in patent US8822520B2, “Substituted bicyclic HCV inhibitors” (Presidio Pharmaceuticals, Inc., priority 2010, dated 2014).

The compounds below were run on HCV genotype 1b replicon in Huh 7 cells (HCV 1b_Huh-Luc/Neo-ET cell line) (assay: HCV replicon assay (luciferase readout)). Settings: Hepatitis C virus, Huh-7, 72 h, read-out: Inhibition of HCV genotype lb.
Type: cell-based
Protocol: Biological activity of the compounds of the invention was determined using an HCV replicon assay. The HCV 1b_Huh-Luc/Neo-ET cell line persistently expressing a bicistronic genotype 1b replicon in Huh 7 cells was obtained from ReBLikon GMBH. This cell line was used to test compound inhibition using luciferase enzyme activity readout as a measurement of compound inhibition of replicon levels.
On Day 1 (the day after plating cells), each compound is added in triplicate to the cells. Plates are incubated for 72 h prior to determining luciferase levels. Enzyme activity was measured using a Bright-Glo Kit (cat. number E2620) manufactured by Promega Corporation. The following equation was used to generate a percent control value for each compound. % Control=(Compound Luciferase Level/Control Luciferase Level)*100
The EC50 value was determined using GraphPad Prism and the following equation: Y=Bottom asymptote+(Top asymptote−Bottom asymptote)/(1+10^((Log EC50−X)*HillSlope))
EC50 values of compounds are determined several times in the replicon assay to generate average EC50 values.

| Compound | EC50 |
| --- | --- |
| COCCOc1cc(-c2cnc([C@@H]3CCCN3C(=O)[C@@H](NC(=O)OC)C(C)C)[nH]2)ccc1-c1ccc(-c2cnc([C@@H]3CCCN3C(=O)[C@@H](NC(=O)OC)C(C)C)[nH]2)c(OCCOC)c1 [Compound 51] | < 1 nM |
| COCCOc1cc(-c2cnc([C@@H]3CCCN3C(=O)[C@@H](NC(=O)OC)C(C)C)[nH]2)ccc1-c1ccc(-c2cnc([C@@H]3CCCN3C(=O)[C@@H](NC(=O)OC)C(C)C)[nH]2)cc1 [Compound 52] | < 1 nM |

Same assay, conditions: Hepatitis C virus, Huh-7; Table 1; EC50 range class; replicon luciferase, 72 h incubation, average EC50; read-out: Inhibition of HCV genotype 1b

| Compound | EC50 |
| --- | --- |
| COCCOc1c(-c2ccc(-c3cnc([C@@H]4CCCN4C(=O)[C@@H](NC(=O)OC)C(C)C)[nH]3)cc2)ccc(-c2cnc([C@@H]3CCCN3C(=O)[C@H](NC(=O)OC)c3cccs3)[nH]2)c1OCCOC [Compound 32] | < 1 nM |
| COCCOc1c(-c2ccc(-c3cnc([C@@H]4CCCN4C(=O)[C@@H](NC(=O)OC)C(C)C)[nH]3)cc2)ccc(-c2cnc([C@@H]3CCCN3C(=O)[C@@H](c3ccccc3)N(C)C)[nH]2)c1OCCOC [Compound 33] | < 1 nM |
| COCCOc1cc(-c2cnc([C@@H]3CCCN3C(=O)[C@@H](NC(=O)OC)C(C)C)[nH]2)ccc1-c1ccc(-c2cnc([C@@H]3CCCN3C(=O)[C@@H](NC(=O)OC)[C@@H](C)OC)[nH]2)cc1OCCOC [Compound 34] | 1 to 9.9 nM |
| CC[C@H](C)[C@H](NC(=O)OC)C(=O)N1CCC[C@H]1c1ncc(-c2ccc(-c3ccc(-c4cnc([C@@H]5CCCN5C(=O)[C@@H](NC(=O)OC)C(C)C)[nH]4)cc3OCCOC)c(OCCOC)c2)[nH]1 [Compound 35] | < 1 nM |
| COCCOc1cc(-c2cnc([C@@H]3CCCN3C(=O)[C@@H](NC(=O)OC)C(C)C)[nH]2)ccc1-c1ccc(-c2cnc([C@@H]3CCCN3C(=O)[C@@H](NC(=O)OC)C3CCCC3)[nH]2)cc1OCCOC [Compound 36] | < 1 nM |
| COCCOc1cc(-c2cnc([C@@H]3CCCN3C(=O)[C@@H](NC(=O)OC)C(C)C)[nH]2)ccc1-c1ccc(-c2cnc([C@@H]3CCCN3C(=O)[C@H](NC(=O)OC)c3ccccc3)[nH]2)cc1OCCOC [Compound 37] | < 1 nM |
| COCCOc1cc(-c2cnc([C@@H]3CCCN3C(=O)[C@@H](NC(=O)OC)C(C)C)[nH]2)ccc1-c1ccc(-c2cnc([C@@H]3CCCN3C(=O)[C@@H](c3ccccc3)N3CCCC3)[nH]2)cc1OCCOC [Compound 38] | 1 to 9.9 nM |
| COCCOc1c(-c2ccc(-c3cnc([C@H](C)NC(=O)[C@@H](NC(=O)OC)C(C)C)[nH]3)cc2)ccc(-c2cnc([C@@H]3CCCN3C(=O)[C@@H](NC(=O)OC)C(C)C)[nH]2)c1OCCOC [Compound 39] | 1 to 9.9 nM |
| COCCOc1c(-c2ccc(-c3cnc([C@@H]4COCCN4C(=O)[C@@H](NC(=O)OC)C(C)C)[nH]3)cc2)ccc(-c2cnc([C@@H]3CCCN3C(=O)[C@@H](NC(=O)OC)C(C)C)[nH]2)c1OCCOC [Compound 40] | 1 to 9.9 nM |
| COCCOc1c(-c2ccc(-c3cnc([C@@H]4CSCN4C(=O)[C@@H](NC(=O)OC)C(C)C)[nH]3)cc2)ccc(-c2cnc([C@@H]3CCCN3C(=O)[C@@H](NC(=O)OC)C(C)C)[nH]2)c1OCCOC [Compound 41] | 1 to 9.9 nM |
| COC(=O)N[C@H](C(=O)N1CCC[C@H]1c1ncc(-c2ccc3cc2OCCOCCOCCOCCOCCOc2cc-3ccc2-c2cnc([C@@H]3CCCN3C(=O)[C@@H](NC(=O)OC)C(C)C)[nH]2)[nH]1)C(C)C [Compound 42] | 1 to 9.9 nM |
| COC(=O)N[C@H](C(=O)N1CCC[C@H]1c1ncc(-c2ccc3c(c2)OCCOCCOCCOCCOCCOc2cc-3ccc2-c2cnc([C@@H]3CCCN3C(=O)[C@@H](NC(=O)OC)C(C)C)[nH]2)[nH]1)C(C)C [Compound 43] | 1 to 9.9 nM |
| COC(=O)N[C@H](C(=O)N1CCC[C@H]1c1ncc(-c2ccc3c(c2)OCCOCCOCCOc2cc(-c4cnc([C@@H]5CCCN5C(=O)[C@@H](NC(=O)OC)C(C)C)[nH]4)ccc2-3)[nH]1)C(C)C [Compound 44] | 1 to 9.9 nM |
| COCCOc1c(-c2ccc(-c3cnc([C@@H]4CCCN4C(=O)[C@@H](NC(=O)OC)C(C)C)[nH]3)cc2)ccc(-c2cnc([C@@H]3CCCN3C(=O)[C@@H](c3ccccc3)N3CCCC3)[nH]2)c1OCCOC [Compound 45] | < 1 nM |
